Laboratory results as given in publication PMC9411558, “Toxicity mechanisms of aflatoxin M1 assisted with molecular docking and the toxicity-limiting role of trans-resveratrol” (Scientific Reports, 2022).
“And” between values parts separate entries of the source, which are not always exact repeats. Equal values may be shown once. Read-outs that look alike come from different tables or passages of the source. Marks after values point to notes of the source that are not given here.

Key:
[1] = assay type: in vivo, Mus musculus
Protocol: In order to interpret the changes in body weight and organ weights, the weekly feed consumption of the mice was measured. Albino mice can consume approximately 3–4 g of feed in a day[15]. In line with this information, 30 g of feed per day were put into the cages, with 5 g for each mouse in each group. Feed consumption was calculated by measuring the amount of feed remaining in the container at the end of the 7th day of each week during the 28-day application period.

[2] = test system: leukocyte cell nuclei; assay type: in vivo, swiss albino mice
Protocol: The protocol of Tice et al.[19] was performed for alkaline single cell gel electrophoresis with slight modifications. Slides were dipped in 1% normal melting point agarose for coating and allowed to dry at 37 °C. 10 µL of peripheral blood were added to 120 µL of 0.5% low-melting-point agarose at 37 °C, layered onto a coated slide, covered with a coverslip and left at 4 °C for 5 min. to solidify the agarose. The coverslip was removed and the slides were immersed into a lysis solution (2.5 M NaCl, 100 mm Na2EDTA, 10 mM Tris–HCl buffer, pH 10, 1% Triton X-100) for approximately 1 h. After lysis, the slides were transferred to a horizontal gel electrophoresis tank with a fresh and cooled alkaline buffer. After a 20 min. DNA unwinding period, electrophoresed at 0.86 V/cm (20 V, 300 mA) for 20 min. […] To prevent DNA damage, all steps were performed in low light and analyzed by fluorescence microscopy. Comets were analyzed with Comet Assay software version 1.2.3b[20] with the parameters of tail DNA length. A total of 600 cells were analyzed for each group, 100 in each animal for DNA damage. The extent of DNA damage was scored from 0 to 4 depending upon the level of DNA damage. […] The total DNA damage per group, expressed as arbitrary units, was calculated using Eq. (2).2 Arbitraryunit=∑i=04Nixi (i: degree of damage (0, 1, 2, 3, 4), Ni: the number of cells in i degree).

[3] = test system: bone marrow cells; assay type: in vivo, Mus musculus
Protocol: (§1) The genotoxic effects of AFM1 and the genotoxicity reducing effects of t-rsv were determined by MN and CAs analyses. MN test was performed in erythrocyte, buccal mucosa epithelium and leukocyte cells. CAs analyzes were investigated in bone marrow cells. The cytotoxic effects of AFM1 and the cytotoxicity reducing effects of t-rsv were determined by MI in bone marrow cells.
(§2) CAs and MI analysis were determined in the bone marrow. For this aim, mice treated with 0.025% colchicine were sacrificed 2 h later under halothane anesthesia. Bone marrow obtained from the femurs of mice was aspirated, washed with the physiological solution and 0.075 M KCl was transferred. After fixation with Carnoy's solution, samples stained with Giemsa (5%) were examined under a microscope. MI rates and CAs frequencies were determined in the prepared slides and 1.000 cells were analyzed for each group. In prepared slides, MI was determined as the percentage of dividing cells among 1000 nucleated cells for each group. Recovery effects (RE) of t-rsv against AFM1 induced genotoxicity were calculated by using Eq. (1). In determining RE, data belonging to Group VI, where t-rsv provided the highest healing effect, Group IV, in which AFM1 was treated alone, and the control group were used.1 RE%=D1-D2/D3-D2×100 D1: data of AFM1 + t-rsv treated group, D2: Data of AFM1 treated group, D3: data of control.

[4] = test system: bone marrow cells; assay type: in vivo, Mus musculus; remark: listed apart in the source
Protocol: as §1
as §2, with “MI rates and CAs frequencies were determined in the prepared slides and 1.000 cells were analyzed for each group.” left out

[5] = Serum parameters (AST, ALT, BUN, creatinine); assay type: in vivo, Mus musculus
Protocol: Whole blood samples from mice stunned under halothane anesthesia were collected in vacuum tubes and centrifuged at 1200g at + 4 °C for 10 min. In serum obtained from blood, aspartate aminotransferase (AST, Teco Diagnostics, CAT. NO: A559–150), alanine aminotransferase (ALT, Teco Diagnostics, CAT. NO: A524–150), blood urea nitrogen (BUN, Teco Diagnostics, CAT. NO: B549–150) and creatinine (Teco Diagnostics) levels were measured on a Medispec 99M autoanalyzer using a commercial kit[16].

[6] = test system: liver and kidney tissues; test: Antioxidant/oxidant balance: MDA and GSH levels in kidney and liver; assay type: in vivo, Mus musculus
Protocol: To determine the effects of AFM1 and t-rsv on antioxidant/oxidant balance, malondialdehyde and glutathione levels were measured in the kidney and liver. For this purpose, liver and kidney organs were isolated from each mouse sacrificed under halothane anesthesia and washed with a sterile solution. Liver and kidney organs were homogenized with cold 0.15 M KCl solution. Homogenates were centrifuged at 5000g and 4 °C for 1 h and MDA and GSH analyzes were performed in the supernatant.

[7] = assay type: in vivo, Mus musculus; remark: listed apart in the source
Protocol: In this study, 36 healthy male Mus musculus (12–14 weeks old, 25–30 g) were used as subjects and obtained from GRU-Experimental Animals Laboratory. Albino mice were maintained in stainless steel cages, at 22 ± 3 °C and 55 ± 5% relative humidity, 12 h light/12 h dark cycle. All experiments were performed in accordance with the guidelines of the Animal Experiments Local Ethics Committee of Giresun University and approved by the Animal Ethics Committee of Giresun University (protocol number: 2017/02). This study was carried out in compliance with the ARRIVE guidelines. Six groups were formed with six mice in each group.
After the mice were stunned under halothane anesthesia, their body weights were measured before the administration period and at the end of the 28-day administration period. In addition, at the end of the 28th day, the liver and kidney organs of the sacrificed mice were isolated and their weights were measured.

[8] = rabbit, in vivo; cited from earlier work
[9] = in vivo; cited from earlier work
[10] = test system: albino mice; conditions: 10 mg/kg and 20 mg/kg doses
[11] = test system: buccal mucosa epithelial cells; test: MN test in buccal mucosa epithelial cells; assay type: in vivo, Mus musculus; conditions: 20 mg/kg t-rsv against 16 mg/kg AFM1
Protocol: as §1
For the MN test in the buccal mucosa epithelial cells, the mouths of the mice stunned with halothane anesthesia were rinsed with distilled water, and epithelial cells were taken from the left and right buccal mucosa and spread on the slide. Preparations fixed in methanol: acetic acid solution were stained with Fast Green and Feulgen then examined with a research microscope. For the MN test in erythrocytes, blood samples (5 µL) from the tail veins of mice stunned with halothane anesthesia were mixed with EDTA (3%) solution and spread on sterile slides. The preparations were fixed in ethanol (70%) for 2 min. were left to dry at 21 °C for 24 h. Slides were stained with Giemsa (5%) for 15 min. and analyzed under a microscope. For the leukocyte MN test, blood samples were obtained from each mouse and centrifuged at 5000 rpm for 10 min. 5 mL of 0.075 M KCl solution was transferred to the pellet. […]

[12] = Group II: 10 mg/kg b.w. t-rsv, 600 cells analyzed
[13] = Group III: 20 mg/kg b.w. t-rsv, 600 cells analyzed
[14] = Group II: 10 mg/kg b.w. t-rsv, 28 days
[15] = Group III: 20 mg/kg b.w. t-rsv, 28 days

Molecule: COc1cc2c(c3oc(=O)c4c(c13)CCC4=O)C1(O)C=COC1O2 (centres unmarked) [AFM1, Aflatoxin M1]
- Feed consumption, 7th day ([1]; mouse, in vivo, iv, 16 mg/kg): 148.6
- Feed consumption, 14th day ([1]; mouse, in vivo, iv, 16 mg/kg): 147.1
- Feed consumption, 21st day ([1]; mouse, in vivo, iv, 16 mg/kg): 131.1
- Feed consumption, 28th day ([1]; mouse, in vivo, iv, 16 mg/kg): 119.8
- average DNA damage score ([2]; mouse, in vivo, iv, 16 mg/kg): 255.67 ± 16.57
- decrease in MI rate compared to the control group ([3]; mouse, in vivo): 32.5%
- CAs frequency, Acentric ([4]; mouse, in vivo, iv, 16 mg/kg): 12.70 ± 0.94^a
- CAs frequency, Break ([4]; mouse, in vivo, iv, 16 mg/kg): 60.20 ± 4.38^a
- CAs frequency, Dicentric ([4]; mouse, in vivo, iv, 16 mg/kg): 8.20 ± 0.84^a
- CAs frequency, Fragment ([4]; mouse, in vivo, iv, 16 mg/kg): 31.80 ± 3.12^a
- CAs frequency, Gap ([4]; mouse, in vivo, iv, 16 mg/kg): 20.80 ± 2.65^a
- CAs frequency, Ring ([4]; mouse, in vivo, iv, 16 mg/kg): 48.40 ± 4.15^a
- increase in ALT level compared to the control group ([5]; mouse, in vivo, iv, 16 mg/kg): 35.8%
- increase in AST level compared to the control group ([5]; mouse, in vivo, iv, 16 mg/kg): 33.6%
- increase in BUN level compared to the control group ([5]; mouse, in vivo, iv, 16 mg/kg): 43.6%
- increase in creatinine level compared to the control group ([5]; mouse, in vivo, iv, 16 mg/kg): 58.4%
- decrease of kidney GSH level compared to the control group ([6]; mouse, in vivo): 39.3%
- decrease of liver GSH level compared to the control group ([6]; mouse, in vivo): 63.7%
- increase of kidney MDA level compared to the control group ([6]; mouse, in vivo): 1.41 times
- increase of liver MDA level compared to the control group ([6]; mouse, in vivo): 1.22 times
- decrease in body weight compared to the control group (mouse, in vivo): 17.5%
- FBW: Final body weight (mouse, in vivo, iv, 16 mg/kg): 41.38 ± 1.98 g
- TWG: Total weight gain (mouse, in vivo, iv, 16 mg/kg): 3.5 g and 3.50^d g
- decrease in kidney weight compared to the control group ([7]; mouse, in vivo): 51.3%
- decrease in liver weight compared to the control group ([7]; mouse, in vivo): 43.1%
- Organ weight, kidney ([7]; mouse, in vivo, iv, 16 mg/kg): 0.74 ± 0.15^d
- Organ weight, liver ([7]; mouse, in vivo, iv, 16 mg/kg): 1.50 ± 0.24^d

Molecule: Aflatoxin G2 [AFG2]
- body weight loss compared to the control group [8]: approximately 539 g

Molecule: Aflatoxin B1 [AFB1]
- body weight loss compared to the control group [8]: approximately 539 g
- reduction of weight gain compared to control [9]: 33.94%

Molecule: Oc1ccc(/C=C/c2cc(O)cc(O)c2)cc1 [t-rsv, trans-resveratrol]
- Feed consumption, 7th day ([1]; Group II: 10 mg/kg b.w. t-rsv): 151.9
- Feed consumption, 14th day ([1]; Group II: 10 mg/kg b.w. t-rsv): 152.7
- Feed consumption, 21st day ([1]; Group II: 10 mg/kg b.w. t-rsv): 155.7
- Feed consumption, 28th day ([1]; Group II: 10 mg/kg b.w. t-rsv): 153.2
- Feed consumption, 7th day ([1]; Group III: 20 mg/kg b.w. t-rsv): 157.6
- Feed consumption, 14th day ([1]; Group III: 20 mg/kg b.w. t-rsv): 153.2
- Feed consumption, 21st day ([1]; Group III: 20 mg/kg b.w. t-rsv): 155.6
- Feed consumption, 28th day ([1]; Group III: 20 mg/kg b.w. t-rsv): 151.9
- toxic effect of resveratrol alone [10]: did not have a toxic effect
- DNA damage by t-rsv application alone ([2]; Group II and III vs control, p > 0.05): did not induce DNA damage
- RE, MI Rate ([3]; 20 mg/kg t-rsv against 16 mg/kg AFM1): 80.7%
- MI levels ([3]; control group, 10 mg/kg, 20 mg/kg t-rsv-treated groups): 13.9–14.3%
- reduction in CA types ([4]; 10 mg/kg and 20 mg/kg t-rsv treatment with AFM1): 22.6–63.9%
- reduction of gap formation ([4]; 20 mg/kg t-rsv with AFM1): 63.9%
- CAs frequency, Acentric [4, 12]: 0.00 ± 0.00^d
- CAs frequency, Break [4, 12]: 0.00 ± 0.00^d
- CAs frequency, Dicentric [4, 12]: 0.00 ± 0.00^d
- CAs frequency, Fragment [4, 12]: 0.00 ± 0.00^d
- CAs frequency, Gap [4, 12]: 0.00 ± 0.00^d
- CAs frequency, Acentric [4, 13]: 0.00 ± 0.00^d
- CAs frequency, Break [4, 13]: 0.00 ± 0.00^d
- CAs frequency, Dicentric [4, 13]: 0.00 ± 0.00^d
- CAs frequency, Fragment [4, 13]: 0.00 ± 0.00^d
- CAs frequency, Gap [4, 13]: 0.00 ± 0.00^d
- protection against abnormalities in serum parameters ([5]; 20 mg/kg t-rsv against AFM1): 45.69–60.3%
- decrease in MDA level ([6]; t-rsv with AFM1, liver and kidney, dose not stated): 16%
- RE, MN Buccosal [11]: 48.9%
- FBW: Final body weight [14]: 49.91 ± 2.10 g
- TWG: Total weight gain [14]: 11.96^a g
- FBW: Final body weight [15]: 50.66 ± 2.18 g
- TWG: Total weight gain [15]: 12.40^a g
- Organ weight, kidney [7, 14]: 1.55 ± 0.30^a
- Organ weight, liver [7, 14]: 2.62 ± 0.34^a
- Organ weight, kidney [7, 15]: 1.53 ± 0.26^a
- Organ weight, liver [7, 15]: 2.65 ± 0.42^a
